Data: US20240002361A1, “COMPOSITIONS AND METHODS FOR BLOCKING NEUROPILIN RECEPTOR 1 FOR THE TREATMENT OF PAIN AND PREVENTION OF VIRAL ENTRY” (Arizona Board of Regents on Behalf of the University of …, priority 2020, published 2024)
≈ marks a conversion by molar mass, not a printed value.

Assays:
in vitro = in vitro ADME; conditions: microsomes
Method: (§1) Additionally, an initial absorption, distribution, metabolism, and excretion (ADME) profile of the compound series was performed (Table 4).

NRP-1/VEGF-A interaction [1] = biological target: T1, NRP-1/VEGF-A interaction (Homo sapiens, UniProt O14786); assay: ELISA-based NRP1-VEGF-A165 protein binding assay (concentration-response, IC50); conditions: 20 nM biotinylated hVEGF-A165 with 4 μg/ml heparin, n=3, read-out: Calculated IC50 values of inhibiting the NRP-1/VEGF-A interaction
T1 construct: coated with the extracellular domain of human NRP-1 (containing the a1a2 and the b1b2 regions); purchased Fisher, Hampton, NH 50-101-8343
T1 sequence (O14786 22-856 limits assumed): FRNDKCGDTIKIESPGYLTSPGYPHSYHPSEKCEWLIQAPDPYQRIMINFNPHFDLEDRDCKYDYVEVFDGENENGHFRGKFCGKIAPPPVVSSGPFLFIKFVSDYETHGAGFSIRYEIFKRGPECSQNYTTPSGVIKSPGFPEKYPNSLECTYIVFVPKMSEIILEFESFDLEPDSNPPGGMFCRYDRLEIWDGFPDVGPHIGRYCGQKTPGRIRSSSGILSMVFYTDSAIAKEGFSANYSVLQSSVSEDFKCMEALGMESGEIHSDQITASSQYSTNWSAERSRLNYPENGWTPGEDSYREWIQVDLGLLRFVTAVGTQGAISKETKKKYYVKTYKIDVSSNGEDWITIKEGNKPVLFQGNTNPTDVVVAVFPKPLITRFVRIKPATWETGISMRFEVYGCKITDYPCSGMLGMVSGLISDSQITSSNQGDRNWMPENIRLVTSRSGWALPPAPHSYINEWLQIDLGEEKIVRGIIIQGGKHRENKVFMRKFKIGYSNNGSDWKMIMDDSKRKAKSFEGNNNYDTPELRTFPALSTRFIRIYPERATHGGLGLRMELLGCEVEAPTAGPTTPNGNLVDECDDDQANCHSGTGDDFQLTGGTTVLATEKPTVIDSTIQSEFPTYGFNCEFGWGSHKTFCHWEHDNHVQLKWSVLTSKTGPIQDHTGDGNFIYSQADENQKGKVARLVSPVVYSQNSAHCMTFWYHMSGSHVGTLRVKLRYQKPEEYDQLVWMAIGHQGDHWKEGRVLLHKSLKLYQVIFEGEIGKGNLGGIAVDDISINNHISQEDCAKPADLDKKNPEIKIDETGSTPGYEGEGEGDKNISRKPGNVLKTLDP
Method: Plates (96-well, Nunc Maxisorp; Thermo Fisher Scientific, Waltham, MA, USA) were coated with human Neuropilin-1-Fc (200 ng per well, Cat #50-101-8343, Fisher, Hampton, NH) and incubated at 4° C. overnight. The following day, the plates were washed and blocked with 3% BSA in PBS to minimize non-specific adsorptive binding to the plates. EG00229 (Cat #6986, Tocris) or the indicated compounds were added at different concentrations and incubated for 30 min at room temperature prior to adding biotinylated human VEGF-A165 (Cat #BT10543-025, R&D systems) at 20 nM with 4 μg/ml of heparin. As a negative control, some wells received PBS containing 3% BSA and as a positive control only hVEGF-A165 was used. The plates were incubated at room temperature with shaking for 2 h. Next, the plates were washed with PBS 0.05% Tween to eliminate unbound protein. Bound biotinylated VEGF was detected by streptavidin-HRP (Cat #016-030-084, Jackson immunoResearch). Tetramethylbenzidine (Cat #DY999, R&D Systems, St. Louis, MO) was used as the colorimetric substrate. The optical density of each well was determined immediately, using a microplate reader (Multiskan Ascent; Thermo Fisher Scientific) set to 450 nm with a correction wavelength of 570 nm. Percentage of inhibition was calculated by the following formula: […]
where S is the optical density measured in the wells with the compounds, N is the optical density measured in the negative control wells and P is the optical density in the positive control wells. The IC50 was calculated using a non-linear regression function with GraphPad Prism Version 9. The data are presented as log (inhibitor) [M] versus normalized response-variable slope. Data are the means±S.E.M. of three independent experiments.
Finally, the ability of the compounds to interfere with the NRP-1NEGF-A interaction was evaluated using an enzyme linked immunosorbent assay (ELISA), as previously described (Moutal, et al., Pain 2021, 12(1), 243-252). Plates were coated with the extracellular domain of human NRP-1 (containing the a1a2 and the b1b2 regions) and the compounds were added to disrupt the NRP-1NEGF-A interaction. The biotinylated human VEGF-A used in the experiments described above (Moutal, et al., Pain 2021, 12(1), 243-252) was discontinued. For the instant studies, biotinylated hVEGF-A (Cat #BT10543-025, R&D systems) was used. Because of that, the known NRP-1 antagonist EG00229 and compound 4 from the above series of inhibitors (Moutal, et al., Pain 2021, 12(1), 243-252) were also tested in the instant studies.

physchem = assay type: physicochemical; conditions: for logD: pH 7.4; for solubility kinetic: pH 7.4, aqueous buffer, kinetic from dmso stock
Method: as §1

HepG2 cells = assay: Cell proliferation and cytotoxicity in HepG2 cells (CellTiterGlo); assay type: cell-based; conditions: Homo sapiens, 48 h
Method: as §1

NRP-1/VEGF-A interaction [2] = biological target: T1, NRP-1/VEGF-A interaction; assay: ELISA-based NRP1-VEGF-A165 protein binding assay (single concentration); conditions: compounds 12.5 μM (Spike S1 100 nM), biotinylated VEGF-A165 10 nM; ± standard error of the mean, n = 11

In the case of COc1cccc(-c2nc(Nc3c[nH]c(C(=O)O)c3)cc(=O)[nH]2)c1 [1g′, 4-[[2-(3-methoxyphenyl)-6-oxo-1H-pyrimidin-4-yl]amino]-1H-pyrrole-2-carboxylic acid], the half-life (in vitro; human) is reported as > 120 min, the half-life (in vitro; mouse) is reported as > 120 min and the half-life (in vitro; rat) is reported as > 120 min. The IC50 (NRP-1/VEGF-A interaction [1]) was 28.2 µM, the logD (physchem) was -0.62 and the solubility kinetic (physchem) was > 200 µM. The IC50 (HepG2 cells) was > 30 µM.

In the case of COc1cccc(-c2cc(=O)[nH]c(Nc3c[nH]c(C(=O)O)c3)n2)c1 [1g′-iso, 4-[[4-(3-methoxyphenyl)-6-oxo-1H-pyrimidin-2-yl]amino]-1H-pyrrole-2-carboxylic acid], the half-life (in vitro; human) is reported as > 120 min, the half-life (in vitro; mouse) is reported as > 120 min and the half-life (in vitro; rat) is reported as > 120 min. For the same compound, the IC50 (NRP-1/VEGF-A interaction [1]) was 32 µM, the logD (physchem) was -0.38 and the solubility kinetic (physchem) was > 200 µM. For the same compound, the IC50 (HepG2 cells) was > 30 µM.

Work on COc1cccc(-c2cc(=O)[nH]c(Nc3ccccc3)n2)c1 [Compound 1] yielded a Rel % inhibition (NRP-1/VEGF-A interaction [2]) of 56 ± 7%.

In the case of COc1cccc(-c2cc(=O)[nH]c(Nc3ccnc(N)c3)n2)c1 [Compound 1a, 2-[(2-amino-4-pyridyl)amino]-4-(3-methoxyphenyl)-1H-pyrimidin-6-one], the half-life (in vitro; human) is reported as > 120 min, the half-life (in vitro; mouse) is reported as 29.3 min and the half-life (in vitro; rat) is reported as 3.8 min. The IC50 (NRP-1/VEGF-A interaction [1]) was 214 µM, the logD (physchem) was 1.64 and the solubility kinetic (physchem) was 184 µM (≈ 56.9 µg/mL). The IC50 (HepG2 cells) was > 30 µM.

COc1cccc(-c2nc(Nc3ccccc3)cc(=O)[nH]2)c1 [Compound 1b, 4-anilino-2-(3-methoxyphenyl)-1H-pyrimidin-6-one] showed a half-life (in vitro; human) of 14.8 min, a half-life (in vitro; mouse) of 9.4 min and a half-life (in vitro; rat) of 8.3 min. It also gave an IC50 (NRP-1/VEGF-A interaction [1]) of 112 µM, a logD (physchem) of 3.78 and a solubility kinetic (physchem) of 3.5 µM (≈ 1.03 µg/mL). For the same compound, the IC50 (HepG2 cells) was > 30 µM.

With COc1cccc(-c2cc(Nc3ccccc3)[nH]c(=O)n2)c1 [Compound 1b-iso, 6-anilino-4-(3-methoxyphenyl)-1H-pyrimidin-2-one] the half-life (in vitro; human) was 102 min, the half-life (in vitro; mouse) was 22 min and the half-life (in vitro; rat) was 4.4 min. It also gave an IC50 (NRP-1/VEGF-A interaction [1]) of 105 µM, a logD (physchem) of 2.78 and a solubility kinetic (physchem) of 4.7 µM (≈ 1.38 µg/mL). For the same compound, the IC50 (HepG2 cells) was > 30 µM.

With COc1cccc(-c2cc(=O)[nH]c(Nc3cccc(O)c3)n2)c1 [Compound 1c, 2-(3-hydroxyanilino)-4-(3-methoxyphenyl)-1H-pyrimidin-6-one] the half-life (in vitro; human) was > 120 min, the half-life (in vitro; mouse) was 71.7 min and the half-life (in vitro; rat) was 4.4 min. It also gave an IC50 (NRP-1/VEGF-A interaction [1]) of 23.1 µM, a logD (physchem) of 2.49 and a solubility kinetic (physchem) of 14.2 µM (≈ 4.39 µg/mL). For the same compound, the IC50 (HepG2 cells) was > 30 µM.

In the case of COc1cc(-c2cc(=O)[nH]c(Nc3ccc(Cl)c(O)c3)n2)ccn1 [Compound 1d, 2-(4-chloro-3-hydroxy-anilino)-4-(2-methoxy-4-pyridyl)-1H-pyrimidin-6-one], the half-life (in vitro; human) is reported as 28.4 min, the half-life (in vitro; mouse) is reported as 59.7 min and the half-life (in vitro; rat) is reported as 14.1 min. The IC50 (NRP-1/VEGF-A interaction [1]) was 134 µM, the logD (physchem) was 3.15 and the solubility kinetic (physchem) was 19.4 µM (≈ 6.69 µg/mL). For the same compound, the IC50 (HepG2 cells) was > 30 µM.

In the case of COc1cc(-c2cc(=O)[nH]c(Nc3ccccc3)n2)ccn1 [Compound 1s, 2-anilino-4-(2-methoxy-4-pyridyl)-1H-pyrimidin-6-one], the half-life (in vitro; human) is reported as 16.6 min, the half-life (in vitro; mouse) is reported as 13.6 min and the half-life (in vitro; rat) is reported as 9.4 min. The IC50 (NRP-1/VEGF-A interaction [1]) was 1030 µM, the logD (physchem) was 3.15 and the solubility kinetic (physchem) was 11.5 µM (≈ 3.38 µg/mL). The IC50 (HepG2 cells) was > 30 µM.

COc1cccc(-c2cc(=O)[nH]c(Nc3cc[nH]n3)n2)c1 [Compound 1t, 4-(3-methoxyphenyl)-2-(1H-pyrazol-3-ylamino)-1H-pyrimidin-6-one] gave a half-life (in vitro; human) of 64.5 min, a half-life (in vitro; mouse) of 4.5 min and a half-life (in vitro; rat) of 12.7 min. For the same compound, the IC50 (NRP-1/VEGF-A interaction [1]) was 128 µM, the logD (physchem) was 2.67 and the solubility kinetic (physchem) was 48.7 µM (≈ 13.8 µg/mL). For the same compound, the IC50 (HepG2 cells) was > 30 µM.

COc1cccc(-c2cc(=O)[nH]c(Nc3ccccc3)n2)n1 [Compound 1u, 2-anilino-4-(6-methoxy-2-pyridyl)-1H-pyrimidin-6-one] gave a half-life (in vitro; human) of 18.9 min, a half-life (in vitro; mouse) of 9.6 min and a half-life (in vitro; rat) of 3.9 min. The IC50 (NRP-1/VEGF-A interaction [1]) was 369 µM, the logD (physchem) was 3.51 and the solubility kinetic (physchem) was 10.4 µM (≈ 3.06 µg/mL). For the same compound, the IC50 (HepG2 cells) was > 30 µM.
